Results taken from PubChem BioAssay AID1552 (Sanford-Burnham Center for Chemical Genomics, 2009).
Active and inactive are the calls of the source. How the calls were made is not given here.

Target: Ubiquitin-conjugating enzyme E2 N (Homo sapiens) (UniProt P61088)
Assay: NMR detection of UBE2N ligand binding – biophysical, purified protein (AID 1552)
Conditions: NMR binding to purified UBE2N

Ubiquitin-conjugating enzyme E2 N (Homo sapiens), sequence (P61088 whole entry, looked up): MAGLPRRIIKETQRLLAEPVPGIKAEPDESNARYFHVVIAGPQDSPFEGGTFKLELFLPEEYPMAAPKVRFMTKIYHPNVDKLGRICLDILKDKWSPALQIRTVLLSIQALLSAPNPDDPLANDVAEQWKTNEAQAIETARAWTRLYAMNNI

Compound	Kd
CN(C)S(=O)(=O)Nc1ccc(Br)cc1F	> 4 mM (inactive)
O=C(c1cc(Cl)cc(Cl)c1)N1CCOCC1	> 4 mM (inactive)
O=C(O)CN1CCN(C2CCCC2)CC1	> 4 mM (inactive)
Cc1cc(C(=O)NC(C)c2ccncc2)no1 (stereo unspecified)	> 4 mM (inactive)
Cc1n[nH]c(=S)[nH]c1=O	> 4 mM (inactive)
CC(C)CCCC1(C)C=Cc2c(O)c3c(c(CCC(C)C)c2O1)OC12C(CC4CC1C(C)(C)OC2(CCC(C)C(=O)O)C4O)C3=O (stereo unspecified)	> 4 mM (inactive)
Cc1noc(C)c1C(=O)Nc1ccccc1-c1ccccc1	> 4 mM (inactive)
CCCn1c(S(=O)(=O)O)nc2ccccc21	> 4 mM (inactive)
Cn1cc(Cl)c(C(=O)Nc2ccc(F)cc2F)n1	> 4 mM (inactive)
O=C1NC(=S)N/C1=C\c1ccccc1F	> 4 mM (inactive)
O=C(O)C1C(=O)NCC1c1ccccc1 (stereo unspecified)	> 4 mM (inactive)
CCn1nnc(NC(=O)c2cc3ccccc3o2)n1	> 4 mM (inactive)
Cn1nnc2cc(C(=O)O)ccc21	> 4 mM (inactive)
OCc1ccc2nsnc2c1	> 4 mM (inactive)
CC(=O)/C=C\[C@@H]1[C@@]2(C)CCCC(C)(C)C2CC[C@@]1(C)O (stereo partly specified)	> 4 mM (inactive)
Nc1c(S(=O)(=O)c2ccccc2)csc1C(=O)O	> 4 mM (inactive)
CC(CC(=O)O)n1cccn1 (stereo unspecified)	> 4 mM (inactive)
Cc1cc(C)n(C2CCS(=O)(=O)C2)n1 (stereo unspecified)	> 4 mM (inactive)
C#CCCCCCCCCCCCc1ccco1	> 4 mM (inactive)
O=C(Nc1cccc2ncccc12)c1cccnc1	> 4 mM (inactive)
NC1=NC(=O)/C(=C/c2ccccc2[N+](=O)[O-])S1	> 4 mM (inactive)
COc1ccccc1NC(=O)c1ccc(Br)o1	> 4 mM (inactive)
Nn1cnn2c(SCc3ccccc3)nnc12	> 4 mM (inactive)
COc1cc(OC)c2c(c1)O[C@H](c1ccc(OC)c(OC)c1)[C@@H](O)C2	> 4 mM (inactive)
Cc1cc(C(=O)NCc2cccnc2)cs1	> 4 mM (inactive)

Compound	Kd
Cc1cc(=O)n(CC(C)C)c(O)c1C#N	> 4 mM (inactive)
Nc1nc(=S)n2c(n1)oc1ccccc12	> 4 mM (inactive)
Cc1nc2ccccc2c(=O)n1-c1cccc(O)c1	> 4 mM (inactive)
OC1COCc2nc3ccccc3n2C1 (stereo unspecified)	> 4 mM (inactive)
CN1C2CCC1CC(OC(=O)C(CO)c1ccccc1)C2 (stereo unspecified)	> 4 mM (inactive)
COc1cc2c(cc1OC)C(C)NCC2 (stereo unspecified)	> 4 mM (inactive)
CC(CCC(=O)O)[C@H]1CCC2C3C(C[C@H](O)[C@@]21C)[C@@]1(C)CC[C@@H](O)C[C@H]1C[C@H]3O (stereo partly specified)	> 4 mM (inactive)
COc1ccccc1NC(=O)CCC(=O)O	> 4 mM (inactive)
O=C(CSc1ccc(Cl)cc1)N1CCOCC1	> 4 mM (inactive)
Cc1cc(C(=O)Nc2cccnc2)cs1	> 4 mM (inactive)
Cc1nn2c(-c3ccco3)nnc2c2ccccc12	> 4 mM (inactive)
CCCSc1nnc2[nH]c(=O)cc(N)n12	> 4 mM (inactive)
O=C(O)c1ncoc1-c1ccccc1	> 4 mM (inactive)
COC1=CC23CCCN2CCc2cc4c(cc2C3C1O)OCO4 (stereo unspecified)	> 4 mM (inactive)
Cc1cc(C)n(S(=O)(=O)c2cc(C)c(C)cc2C)n1	> 4 mM (inactive)
CC(C)c1ccccc1NC(=O)c1cnccn1	> 4 mM (inactive)
CC(=O)Nc1cc(S(=O)(=O)N(C)C)ccc1Cl	> 4 mM (inactive)
N#CCSc1nnc2ccc3ccccc3n12	> 4 mM (inactive)
COC(=O)c1ccc2nc[nH]c2c1	> 4 mM (inactive)
N#Cc1cc2ccccc2nc1N	> 4 mM (inactive)
c1ccc(-n2ncc3c(NCc4ccco4)ncnc32)cc1	> 4 mM (inactive)
CC(C)=CCC[C@](C)(O)C1CC=C(C)CC1 (stereo partly specified)	> 4 mM (inactive)
C/C(=N\NC(N)=S)C(=O)O	> 4 mM (inactive)
CC1(C)CC2(CCO1)NCCN1C(=O)CSC12 (stereo unspecified)	> 4 mM (inactive)
Cc1cc(NC(=O)CSc2nncn2C)no1	> 4 mM (inactive)

Compound	Kd
Cn1nnc2cc(C(=O)NC3=NCCS3)ccc21	> 4 mM (inactive)
CS(=O)(=O)NC1CCN(Cc2ccccc2)CC1	> 4 mM (inactive)
CC(=O)c1cnc(Nc2nc(C)c3ccccc3n2)nc1C	> 4 mM (inactive)
CCOC(=O)c1[nH]cnc1C(=O)OC(C)C	> 4 mM (inactive)
OC(CCl)c1ccc(-n2cncn2)cc1 (stereo unspecified)	> 4 mM (inactive)
O=C(Oc1ccc2c(c1)OCC2=O)c1ccccc1	> 4 mM (inactive)
Nc1ncnc(NCc2cccnc2)c1[N+](=O)[O-]	> 4 mM (inactive)
Nc1c2c3c(sc2nc(=O)n1N)CCCC3	> 4 mM (inactive)
Nc1cc(=O)[nH]c(SCC(=O)NCc2ccccc2)n1	> 4 mM (inactive)
O=C(NN=C1CCCC1)c1ccncc1	> 4 mM (inactive)
COC(=O)Nc1ccc2ncn(C)c(=O)c2c1	> 4 mM (inactive)
CN1CC(=O)N=C1N	> 4 mM (inactive)
COC(=O)[C@@H]1OC(=O)C2OC23[C@@]1(C)CCC1[C@@]2(C)CCC(=O)C(C)(C)C2C[C@@H](OC(C)=O)[C@]13C (stereo partly specified)	> 4 mM (inactive)
COc1cc(N)ccc1NC(=O)c1cccs1	> 4 mM (inactive)
Cc1oc(-c2ccccc2)cc1C(=O)O	> 4 mM (inactive)
Cc1cc(C(=O)N2CCCCCC2)cs1	> 4 mM (inactive)
CC[C@H](/C=C/C(C)C1CCC2C3CCC4=CC(=O)CC[C@]4(C)C3CC[C@]12C)C(C)C (stereo partly specified)	> 4 mM (inactive)
CC1CCN(C(=O)c2ccc(NS(C)(=O)=O)cc2)CC1	> 4 mM (inactive)
Nc1cccc(S(=O)(=O)N2CCOCC2)c1	> 4 mM (inactive)
Cc1ccc(C)n1/N=C1\NC(=O)CS1	> 4 mM (inactive)
CN(C)S(=O)(=O)c1ccc(C(=O)NN)cc1	> 4 mM (inactive)
Cc1nnc2sc(-c3ccco3)nn12	> 4 mM (inactive)
Cc1ccc(C)n1NC(=O)c1cccs1	> 4 mM (inactive)
CCN1CCc2c(sc(N)c2C(N)=O)C1	> 4 mM (inactive)
CC1=C(/C=C/C(C)=C/C=C/C(C)=C/CO)C(C)(C)CCC1	> 4 mM (inactive)

Compound	Kd
Cc1onc(-c2c(F)cccc2Cl)c1C(N)=O	> 4 mM (inactive)
CC(=O)Nc1cccc(Cn2cccn2)c1	> 4 mM (inactive)
COc1ccccc1-c1nc(-c2ccc(C)nc2OC)no1	> 4 mM (inactive)
CC12CC[C@H](CC1=O)C2(C)C	> 4 mM (inactive)
CCN(CC)c1nc2n(c(=O)n1)CCO2	> 4 mM (inactive)
C=CCCCCCCCCCCCC(O)CC(O)COC(C)=O (stereo unspecified) (tested in a mixture with another compound)	> 4 mM (inactive)
CC(=O)NC(=S)Nc1ccc(S(N)(=O)=O)cc1	> 4 mM (inactive)
O=C(O)C1CCCN1Cc1c[nH]c2ccccc12 (stereo unspecified)	> 4 mM (inactive)
Cn1c(CN2CC(c3ccccc3)CC2=O)n[nH]c1=S (stereo unspecified)	> 4 mM (inactive)
Fc1cccc(Cl)c1CN1CCNCC1	> 4 mM (inactive)
O=C(Nc1ccc2c(c1)OCCO2)c1c(F)cccc1F	> 4 mM (inactive)
COc1cccc(S(=O)(=O)Nc2cccnc2)c1	> 4 mM (inactive)
Cc1nnsc1C(=O)Nc1ccccn1	> 4 mM (inactive)
CC1(C)CC2C1CC[C@]1(C)CCC3C(C(=O)O)CC(=O)O[C@@]32C1 (stereo partly specified)	> 4 mM (inactive)
Nc1ccccc1N=C1CNC(=O)C1	> 4 mM (inactive)
COc1ccc(NS(=O)(=O)c2ccc(N)cc2)nn1	> 4 mM (inactive)
CCCn1cnc2sc(C(N)=O)c(C)c2c1=O	> 4 mM (inactive)
Cc1cc(CN2C(=O)c3ccccc3C2=O)on1	> 4 mM (inactive)
Brc1ccc(-c2nc(-c3ccncc3)no2)o1	> 4 mM (inactive)
CCOC(=O)c1[nH]c(C)cc1C	> 4 mM (inactive)
Cc1cc(C(=O)NC2=NCCS2)cs1	> 4 mM (inactive)
CC1SC(=NC(=O)c2ccncc2)NC1=O (stereo unspecified)	> 4 mM (inactive)
Cc1cc(NC(=O)c2ccc3c(c2)OCO3)no1	> 4 mM (inactive)
S=C(c1ccc2c(c1)OCO2)N1CCCC1	> 4 mM (inactive)
COc1ccc(-c2ccc(OC)cc2C(=O)O)cc1	> 4 mM (inactive)

Compound	Kd
CC(=O)NC1(NC(C)=O)CCN(C)CC1	> 4 mM (inactive)
CC(NC(=O)c1ccco1)c1ccc2c(c1)OCCO2 (stereo unspecified)	> 4 mM (inactive)
CC(=O)Nc1ccc(NC(=O)N2CCOCC2)cc1	> 4 mM (inactive)
CC[C@]12CCCN3CCc4c(n(c5ccccc45)[C@](O)(C(=O)OC)C1)[C@@H]32	> 4 mM (inactive)
O=c1nc(NCc2ccco2)sc2ncccc12	> 4 mM (inactive)
CC(=O)Nc1ccc(-c2ccc3nncn3n2)cc1	> 4 mM (inactive)
CC(=O)Nc1nnc(-c2ccncc2)s1	> 4 mM (inactive)
O=C(CC1SC(=O)NC1=O)Nc1ccccc1 (stereo unspecified)	> 4 mM (inactive)
COCc1cc(=O)oc2cc(O)c(Cl)cc12	> 4 mM (inactive)
O=c1[nH]nc(Cc2ccccn2)c2ccccc12	> 4 mM (inactive)
NC(=O)c1ccc(-c2ccccn2)s1	> 4 mM (inactive)
O=C1C2CCCCC2C(=O)N1Cc1cccnc1 (stereo unspecified)	> 4 mM (inactive)
COc1c(C(C)C)oc2cc3oc(=O)ccc3cc12	> 4 mM (inactive)
O=[n+]1cc(-c2ccccc2)n([O-])c2c1CCC2	> 4 mM (inactive)
CC(C)CCCC(C)C1CCC2C3C[C@@H](O)[C@@]4(O)C[C@@H](O)CC[C@]4(C)C3CC[C@]12C (stereo partly specified)	> 4 mM (inactive)
CC(=O)Oc1ccc(-c2cc(=O)c3c(OC(C)=O)cc(OC(C)=O)cc3o2)cc1	> 4 mM (inactive)
Cc1nc(-c2ccc(NS(C)(=O)=O)cc2)cs1	> 4 mM (inactive)
Cc1occc1C(=O)Nc1ccc2c(c1)CCC2	> 4 mM (inactive)
Cc1nc(-c2cc(C(=O)O)no2)cs1	> 4 mM (inactive)
COc1nc(C)ccc1-c1noc(-c2ccco2)n1	> 4 mM (inactive)
Cc1ccc(NC(=O)C2CCCNC2=O)nc1 (stereo unspecified)	> 4 mM (inactive)
